Target: R132H mutant IDH1 enzyme (Homo sapiens (Human), UniProt O75874, R132H)
Test: R132H IDH1 Enzymatic Assay
Assay type: biochemical
Conditions: 1.5 nM final, 30 min preincubation, 60 min reaction, Kinase-GLO luminescence
Description: R132H IDH1 Enzymatic Assay
Each test compound (10 mM stock in DMSO) is diluted in DMSO to make a 10-point, 3-fold dilution series. 125 nL of each dilution or DMSO alone is dispensed to a 384-well Greiner Lumitrac 200 assay plate using an Echo® Liquid Handler. To each well of the plate is added 20 uL of enzyme in assay buffer or assay buffer alone. Assay buffer consists of 50 mM sodium phosphate, pH 7.0, 50 mM magnesium chloride, 50 mM sodium chloride, and 0.01% (w/v) bovine serum albumin. When present, the R132H mutant IDH1 enzyme is at a working concentration of 1.875 nM (final concentration in assay of 1.5 nM). The assay plate is allowed to incubate for 30 minutes at room temperature and 5 uL of 5× substrate mixture (2.5 uM nicotinamide adenine dinucleotide phosphate, 100 uM adenosine diphosphate, 7.5 mM glyceraldehyde-3-phosphate, 7.5 ug/mL of spinach glyceraldehyde-3-phosphate dehydrogenase, 25 nM phosphoglycerate kinase, and 5 mM alpha-ketoglutarate in assay buffer) is added to all wells. The reaction plate is incubated for 60 minutes followed by addition of 25 uL of Promega Kinase-GLO reagent to all wells and 10-minute incubation.
Luminescence is measured using a PerkinElmer Envision plate reader. The percent activity of each dilution is determined as the ratio of background corrected signal to the background corrected signal of wells receiving only DMSO. IC50 values are determined by fitting percent activity data to a four-parameter logistic dose response equation. The IC50 values of the exemplified compounds are included in Table 8.

Chain of R132H mutant IDH1 enzyme (O75874 whole entry R132H): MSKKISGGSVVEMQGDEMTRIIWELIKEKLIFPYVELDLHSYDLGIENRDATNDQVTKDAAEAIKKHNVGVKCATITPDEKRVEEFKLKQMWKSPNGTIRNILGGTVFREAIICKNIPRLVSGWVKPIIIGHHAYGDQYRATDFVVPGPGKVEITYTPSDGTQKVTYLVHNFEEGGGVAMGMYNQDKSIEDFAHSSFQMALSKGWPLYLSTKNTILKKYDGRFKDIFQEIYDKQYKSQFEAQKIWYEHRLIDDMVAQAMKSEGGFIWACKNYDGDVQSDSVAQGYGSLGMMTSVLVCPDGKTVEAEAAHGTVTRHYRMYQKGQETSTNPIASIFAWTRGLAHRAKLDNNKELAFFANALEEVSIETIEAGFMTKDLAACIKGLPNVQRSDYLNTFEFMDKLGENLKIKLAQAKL

How did the IC50 turn out when `O=C(C1CCN(CC(F)(F)F)CC1)N1Cc2cc(F)cnc2Nc2ccc(N3C[C@H]4COC[C@@H](C3)O4)cc21` [Example 15, (8-((1R,5S)-3,9-dioxa-7-azabicyclo[3.3.1]nonan-7-yl)-3-fluoro-5,11-dihydro-6H-benzo[b]pyrido[2,3-e][1,4]diazepin-6-yl)(1-(2,2,2-trifluoroethyl)piperidin-4-yl)methanone] was run?
Its IC50 is 83.4 nM.

`CC(C)O[C@H]1CC[C@H](C(=O)N2Cc3cc(F)cnc3Nc3cc(F)c(N4CC5(CCCOC5)C4)cc32)CC1` [Example 25, [3,9-difluoro-8-(6-oxa-2-azaspiro[3.5]non-2-yl)-5,11-dihydro-6H-pyrido[2,3-b][1,5]benzodiazepin-6-yl][trans-4-(propan-2-yloxy)cyclohexyl]methanone] was tested. Which IC50 did it give?
The IC50 was 7.8 nM.

Which IC50 does the source give for `Cc1cc2c(cc1N1C[C@@H]3CC[C@H]1CO3)N(C(=O)[C@H]1CC[C@H](OC(C)C)CC1)Cc1cccnc1N2` [Example 58, (trans-4-isopropoxycyclohexyl){9-methyl-8-[(1S,4S)-2-oxa-5-azabicyclo[2.2.2]oct-5-yl]-5,11-dihydro-6H-pyrido[2,3-b][1,5]benzodiazepin-6-yl}methanone] here?
Its IC50 is 18.3 nM.

For `O=C(C1CCN(CC(F)(F)F)CC1)N1Cc2cc(F)cnc2Nc2ccc([C@@H]3COCCO3)cc21` [Example 55, (R)-(8-(1,4-dioxan-2-yl)-3-fluoro-5,11-dihydro-6H-benzo[b]pyrido[2,3-e][1,4]diazepin-6-yl)(1-(2,2,2-trifluoroethyl)piperidin-4-yl)methanone], which IC50 is on record?
The IC50 was 6.5 nM.

`CC(C)O[C@H]1CC[C@H](C(=O)N2Cc3cc(F)cnc3Nc3ccc(N4CC5CCC4CO5)cc32)CC1` (single isomer, unassigned) [Example 13, [3-fluoro-8-(2-oxa-5-azabicyclo[2.2.2]oct-5-yl)-5,11-dihydro-6H-pyrido[2,3-b][1,5]benzodiazepin-6-yl][trans-4-(propan-2-yloxy)cyclohexyl]methanone] was tested. Which IC50 did it give?
Its IC50 is 35.5 nM.

`CC(C)O[C@H]1CC[C@H](C(=O)N2Cc3cc(F)cnc3Nc3ccc(N4[C@@H]5CO[C@H]6[C@@H]5OC[C@H]64)cc32)CC1` [Example 17, (3-fluoro-8-((3R,3aR,6R,6aR)-hexahydro-3,6-epiminofuro[3,2-b]furan-7-yl)-5,11-dihydro-6H-benzo[b]pyrido[2,3-e][1,4]diazepin-6-yl)(trans-4-isopropoxycyclohexyl)methanone] was tested. Which IC50 did it give?
Its IC50 is 28.4 nM.

With `Cn1nccc1-c1cc2c(cc1F)Nc1ncc(F)cc1CN2C(=O)C1CCN(CC(F)(F)F)CC1` [Example 50, (3,9-Difluoro-8-(1-methyl-1H-pyrazol-5-yl)-5,11-dihydro-6H-benzo[b]pyrido[2,3-e][1,4]diazepin-6-yl)(1-(2,2,2-trifluoroethyl)piperidin-4-yl)methanone] as the molecule, how does the IC50 read?
Its IC50 is 3.5 nM.

Which IC50 does the source give for `O=C(C1CCN(CC(F)(F)F)CC1)N1Cc2cccnc2Nc2cc(F)c(N3C[C@@H]4C[C@H]3CO4)cc21` [Example 27, (8-((1S,4S)-2-oxa-5-azabicyclo[2.2.1]heptan-5-yl)-9-fluoro-5,11-dihydro-6H-benzo[b]pyrido[2,3-e][1,4]diazepin-6-yl)(1-(2,2,2-trifluoroethyl)piperidin-4-yl)methanone] here?
Its IC50 is 27.5 nM.

With `C[C@H]1CN(c2cc3c(cc2F)Nc2ncc(F)cc2CN3C(=O)C2CCN(CC(F)(F)F)CC2)[C@@H](C)CO1` [Example 23, (8-((2S,5S)-2,5-dimethylmorpholino)-3,9-difluoro-5,11-dihydro-6H-benzo[b]pyrido[2,3-e][1,4]diazepin-6-yl)(1-(2,2,2-trifluoroethyl)piperidin-4-yl)methanone] as the molecule, how does the IC50 read?
Its IC50 is 23 nM.

With `CC(C)O[C@H]1CC[C@H](C(=O)N2Cc3cccnc3Nc3cc(F)c(C4COCCO4)cc32)OC1` (stereo partly drawn) [Example 38, (8-(1,4-dioxan-2-yl)-9-fluoro-5,11-dihydro-6H-benzo[b]pyrido[2,3-e][1,4]diazepin-6-yl)((2R,5S)-5-isopropoxytetrahydro-2H-pyran-2-yl)methanone] as the molecule, how does the IC50 read?
Its IC50 is 36 nM.

How did the IC50 turn out when `COc1ccc2c(c1)N(C(=O)C1CCN(CC(F)(F)F)CC1)C(C)c1cccnc1N2` (centres unmarked) [Example 67, (8-Methoxy-5-methyl-5,11-dihydro-6H-benzo[b]pyrido[2,3-e][1,4]diazepin-6-yl)(1-(2,2,2-trifluoroethyl)piperidin-4-yl)methanone] was run?
Its IC50 is 215 nM.

For `CO[C@H]1C[C@H]2CC[C@@H](C1)N2c1cc2c(cc1F)Nc1ncc(F)cc1CN2C(=O)C1CCN(CC(F)(F)F)CC1` [Example 30, (3,9-difluoro-8-((1R,3r,5S)-3-methoxy-8-azabicyclo[3.2.1]octan-8-yl)-5,11-dihydro-6H-benzo[b]pyrido[2,3-e][1,4]diazepin-6-yl)(1-(2,2,2-trifluoroethyl)piperidin-4-yl)methanone], which IC50 is on record?
The IC50 was 14.1 nM.

For `O=C(C1CCN(CC(F)(F)F)CC1)N1Cc2cc(F)cnc2Nc2cc(F)c(N3C[C@H]4CC[C@@H]3CO4)cc21` [Example 31, (8-((1R,4R)-2-oxa-5-azabicyclo[2.2.2]octan-5-yl)-3,9-difluoro-5,11-dihydro-6H-benzo[b]pyrido[2,3-e][1,4]diazepin-6-yl)(1-(2,2,2-trifluoroethyl)piperidin-4-yl)methanone], which IC50 is on record?
Its IC50 is 18 nM.

How did the IC50 turn out when `CC(C)O[C@H]1CC[C@H](C(=O)N2Cc3cc(F)cnc3Nc3ccc(N4C[C@H]5CC[C@@H]4CO5)cc32)OC1` [Example 48, (8-((1R,4R)-2-oxa-5-azabicyclo[2.2.2]octan-5-yl)-3-fluoro-5,11-dihydro-6H-benzo[b]pyrido[2,3-e][1,4]diazepin-6-yl)((2R,5S)-5-isopropoxytetrahydro-2H-pyran-2-yl)methanone] was run?
The IC50 was 10 nM.

With `O=C(C1CCN(CC(F)(F)F)CC1)N1Cc2cc(F)cnc2Nc2cc(F)c(-c3ccn[nH]3)cc21` [Example 51, (3,9-difluoro-8-(1H-pyrazol-5-yl)-5,11-dihydro-6H-benzo[b]pyrido[2,3-e][1,4]diazepin-6-yl)(1-(2,2,2-trifluoroethyl)piperidin-4-yl)methanone] as the molecule, how does the IC50 read?
The IC50 was 3.6 nM.

Which IC50 does the source give for `Cn1cc(-c2cc3c(cc2F)Nc2ncccc2CN3C(=O)C2CCN(CC(F)(F)F)CC2)cn1` [Example 52, (9-Fluoro-8-(1-methyl-1H-pyrazol-4-yl)-5,11-dihydro-6H-benzo[b]pyrido[2,3-e][1,4]diazepin-6-yl)(1-(2,2,2-trifluoroethyl)piperidin-4-yl)methanone] here?
Its IC50 is 5.7 nM.

How did the IC50 turn out when `O=C(C1CCN(CC(F)(F)F)CC1)N1Cc2cc(F)cnc2Nc2ccc(N3CC4(CCCOC4)C3)cc21` [Example 12, (3-fluoro-8-(6-oxa-2-azaspiro[3.5]nonan-2-yl)-5,11-dihydro-6H-benzo[b]pyrido[2,3-e][1,4]diazepin-6-yl)(1-(2,2,2-trifluoroethyl)piperidin-4-yl)methanone] was run?
The IC50 was 22.1 nM.

For `CC(C)O[C@H]1CC[C@H](C(=O)N2Cc3cc(F)cnc3Nc3cc(F)c(N4C[C@@H]5C[C@H]4CO5)cc32)OC1` [Example 46, (8-((1S,4S)-2-oxa-5-azabicyclo[2.2.1]heptan-5-yl)-3,9-difluoro-5,11-dihydro-6H-benzo[b]pyrido[2,3-e][1,4]diazepin-6-yl)((2R,5S)-5-isopropoxytetrahydro-2H-pyran-2-yl)methanone], which IC50 is on record?
Its IC50 is 17.9 nM.

With `O=C(C1CCN(CC(F)(F)F)CC1)N1Cc2cccnc2Nc2cc(F)c([C@@H]3COCCO3)cc21` [Example 56, (R)-(8-(1,4-Dioxan-2-yl)-9-fluoro-5,11-dihydro-6H-benzo[b]pyrido[2,3-e][1,4]diazepin-6-yl)(1-(2,2,2-trifluoroethyl)piperidin-4-yl)methanone] as the molecule, how does the IC50 read?
The IC50 was 18.1 nM.

For `CC(C)O[C@H]1CC[C@H](C(=O)N2Cc3cc(F)cnc3Nc3ccc(N4C[C@@H]5C[C@H]4CO5)cc32)CC1` [Example 18, (8-((1S,4S)-2-oxa-5-azabicyclo[2.2.1]heptan-5-yl)-3-fluoro-5,11-dihydro-6H-benzo[b]pyrido[2,3-e][1,4]diazepin-6-yl)(trans-4-isopropoxycyclohexyl)methanone], which IC50 is on record?
The IC50 was 8.6 nM.

How did the IC50 turn out when `CC(C)O[C@H]1CC[C@H](C(=O)N2Cc3cc(F)cnc3Nc3cc(F)c(N4CC5(CCCOC5)C4)cc32)OC1` [Example 45, (3,9-Difluoro-8-(6-oxa-2-azaspiro[3.5]nonan-2-yl)-5H-benzo[b]pyrido[2,3-e][1,4]diazepin-6(11H)-yl)((2R,5S)-5-isopropoxytetrahydro-2H-pyran-2-yl)methanone] was run?
Its IC50 is 18.3 nM.

`O=C(C1CCN(CC(F)(F)F)CC1)N1Cc2cc(F)cnc2Nc2ccc(N3CC4CCC3CO4)cc21` (single isomer, unassigned) [Example 8, (8-(2-oxa-5-azabicyclo[2.2.2]octan-5-yl)-3-fluoro-5,11-dihydro-6H-benzo[b]pyrido[2,3-e][1,4]diazepin-6-yl)(1-(2,2,2-trifluoroethyl)piperidin-4-yl)methanone] was tested. Which IC50 did it give?
Its IC50 is 25.4 nM.

With `CC(C)O[C@H]1CC[C@H](C(=O)N2Cc3cc(F)cnc3Nc3ccc([C@@H]4COCCO4)cc32)OC1` [Example 34, (8-((R)-1,4-dioxan-2-yl)-3-fluoro-5,11-dihydro-6H-benzo[b]pyrido[2,3-e][1,4]diazepin-6-yl)((2R,5S)-5-isopropoxytetrahydro-2H-pyran-2-yl)methanone] as the molecule, how does the IC50 read?
The IC50 was 23.4 nM.
